The source made the active and inactive calls. The calls are words filed in the database; no cut-off is given here.
How the values were obtained:
Assay type in all cases: functional
Oryctolagus cuniculus [1] = test: Ocular hypotensive activity in New Zealand albino rabbit eye assessed as reduction in hypertonic saline-induced intraocular pressure at 1% administered as eye drop measured at 60 mins post administration by applanation tonometry
Oryctolagus cuniculus [2] = test: Ocular hypotensive activity in New Zealand albino rabbit eye assessed as reduction in hypertonic saline-induced intraocular pressure at 1% administered as eye drop measured at 4 hrs post administration by applanation tonometry
Oryctolagus cuniculus [3] = test: Ocular hypotensive activity in New Zealand albino rabbit eye assessed as reduction in hypertonic saline-induced intraocular pressure at 2% administered as eye drop measured at 60 mins post administration by applanation tonometry

Structure (SMILES)	Activity (Oryctolagus cuniculus [1])	Activity (Oryctolagus cuniculus [2])	Activity (Oryctolagus cuniculus [3])
NS(=O)(=O)c1ccc(-c2cnc(C(=O)N3CCOCC3)o2)s1	Active	Active	–
CCN[C@H]1C[C@H](C)S(=O)(=O)c2sc(S(N)(=O)=O)cc21	–	–	Active
Cc1ncc(-c2ccc(S(N)(=O)=O)cc2)o1	Active	Active	–
